Results taken from ChEMBL document CHEMBL5113453, “Design, synthesis, and biological evaluation of a new series of pyrazole derivatives: Discovery of potent and selective JNK3 kinase inhibitors” (Bioorg Med Chem, 2022).

Columns and labels:
Assay type in all cases: functional, cell-based
SNB-19 = test: Antiproliferative activity against human SNB-19 cells measured after 48 hrs by SRB assay
EKVX = test: Antiproliferative activity against human EKVX cells measured after 48 hrs by SRB assay
U-251 = test: Antiproliferative activity against human U-251 cells measured after 48 hrs by SRB assay
SW-620 = test: Antiproliferative activity against human SW-620 cells measured after 48 hrs by SRB assay
IGROV-1 = test: Antiproliferative activity against human IGROV-1 cells measured after 48 hrs by SRB assay
HL-60(TB) = test: Antiproliferative activity against human HL-60(TB) cells measured after 48 hrs by SRB assay
OVCAR-3 = test: Antiproliferative activity against human OVCAR-3 cells measured after 48 hrs by SRB assay
HOP-62 = test: Antiproliferative activity against human HOP-62 cells measured after 48 hrs by SRB assay
K562 = test: Antiproliferative activity against human K562 cells measured after 48 hrs by SRB assay
MCF7 = test: Antiproliferative activity against human MCF7 cells measured after 48 hrs by SRB assay
SK-MEL-2 = test: Antiproliferative activity against human SK-MEL-2 cells measured after 48 hrs by SRB assay
HT-29 = test: Antiproliferative activity against human HT-29 cells measured after 48 hrs by SRB assay
Hs-578T = test: Antiproliferative activity against human Hs-578T cells measured after 48 hrs by SRB assay
UACC-257 = test: Antiproliferative activity against human UACC-257 cells measured after 48 hrs by SRB assay
SF-539 = test: Antiproliferative activity against human SF-539 cells measured after 48 hrs by SRB assay
MOLT-4 = test: Antiproliferative activity against human MOLT-4 cells measured after 48 hrs by SRB assay
PC-3 = test: Antiproliferative activity against human PC-3 cells measured after 48 hrs by SRB assay
MDA-MB-468 = test: Antiproliferative activity against human MDA-MB-468 cells measured after 48 hrs by SRB assay
HOP-92 = test: Antiproliferative activity against human HOP-92 cells measured after 48 hrs by SRB assay
SF-268 = test: Antiproliferative activity against human SF-268 cells measured after 48 hrs by SRB assay
A498 = test: Antiproliferative activity against human A498 cells measured after 48 hrs by SRB assay
SK-MEL-5 = test: Antiproliferative activity against human SK-MEL-5 cells measured after 48 hrs by SRB assay
OVCAR-8 = test: Antiproliferative activity against human OVCAR-8 cells measured after 48 hrs by SRB assay
A549 = test: Antiproliferative activity against human A549 cells measured after 48 hrs by SRB assay
CAKI-1 = test: Antiproliferative activity against human CAKI-1 cells measured after 48 hrs by SRB assay
SN12C = test: Antiproliferative activity against human SN12C cells measured after 48 hrs by SRB assay
NCI-H23 = test: Antiproliferative activity against human NCI-H23 cells measured after 48 hrs by SRB assay
NCI-H460 = test: Antiproliferative activity against human NCI-H460 cells measured after 48 hrs by SRB assay
UACC-62 = test: Antiproliferative activity against human UACC-62 cells measured after 48 hrs by SRB assay
RXF 393 = test: Antiproliferative activity against human RXF 393 cells measured after 48 hrs by SRB assay
WI-38 = test: Antiproliferative activity against human WI-38 cells measured by MTT assay
SF-295 = test: Antiproliferative activity against human SF-295 cells measured after 48 hrs by SRB assay
OVCAR-4 = test: Antiproliferative activity against human OVCAR-4 cells measured after 48 hrs by SRB assay
SR = test: Antiproliferative activity against human SR cells measured after 48 hrs by SRB assay
M14 = test: Antiproliferative activity against human M14 cells measured after 48 hrs by SRB assay
COLO 205 = test: Antiproliferative activity against human COLO 205 cells measured after 48 hrs by SRB assay
SK-OV-3 = test: Antiproliferative activity against human SK-OV-3 cells measured after 48 hrs by SRB assay
786-0 = test: Antiproliferative activity against human 786-0 cells measured after 48 hrs by SRB assay
Malme-3M = test: Antiproliferative activity against human Malme-3M cells measured after 48 hrs by SRB assay

COc1cccc(-c2nn(-c3ccccc3)cc2-c2ccnc(NCCCNC(=O)Nc3ccc(F)cc3)c2)c1
IC50 (SNB-19; SNB-19, 48 h): 12.1 µM
TGI (SNB-19; SNB-19, time 48 hrs): > 37 µM
IC50 (EKVX; 48 h): 9.63 µM
TGI (EKVX; time 48 hrs): > 37 µM
IC50 (U-251; U-251, 48 h): 9.84 µM
TGI (U-251; U-251, time 48 hrs): > 37 µM
IC50 (SW-620; SW-620, 48 h): 8.02 µM
TGI (SW-620; SW-620, time 48 hrs): > 37 µM
IC50 (IGROV-1; IGROV-1, 48 h): 9.34 µM
TGI (IGROV-1; IGROV-1, time 48 hrs): > 37 µM
IC50 (HL-60(TB); HL-60, 48 h): 3.77 µM
TGI (HL-60(TB); HL-60, time 48 hrs): 13.7 µM
IC50 (OVCAR-3; OVCAR-3, 48 h): 6.18 µM
TGI (OVCAR-3; OVCAR-3, time 48 hrs): > 37 µM
IC50 (HOP-62; HOP-62, 48 h): 14.7 µM
TGI (HOP-62; HOP-62, time 48 hrs): > 37 µM
IC50 (K562; K562, 48 h): 2.96 µM
TGI (K562; K562, time 48 hrs): > 37 µM
IC50 (MCF7; MCF7, 48 h): 7.17 µM
TGI (MCF7; MCF7, time 48 hrs): 18 µM
IC50 (SK-MEL-2; SK-MEL-2, 48 h): 6.3 µM
TGI (SK-MEL-2; SK-MEL-2, time 48 hrs): 12.6 µM
IC50 (HT-29; HT-29, 48 h): 7.17 µM
TGI (HT-29; HT-29, time 48 hrs): 18.2 µM
IC50 (Hs-578T; 48 h): 6.24 µM
TGI (Hs-578T; time 48 hrs): 17.9 µM
IC50 (UACC-257; UACC-257, 48 h): 7.05 µM
TGI (UACC-257; UACC-257, time 48 hrs): 16.9 µM
IC50 (SF-539; SF-539, 48 h): 6.34 µM
TGI (SF-539; SF-539, time 48 hrs): 13.4 µM
IC50 (MOLT-4; MOLT-4, 48 h): 3.94 µM
TGI (MOLT-4; MOLT-4, time 48 hrs): 19 µM
IC50 (PC-3; PC-3, 48 h): 6.23 µM
TGI (PC-3; PC-3, time 48 hrs): > 37 µM
IC50 (MDA-MB-468; MDA-MB-468, 48 h): 4.83 µM
TGI (MDA-MB-468; MDA-MB-468, time 48 hrs): 13 µM
IC50 (HOP-92; HOP-92, 48 h): 6.25 µM
TGI (HOP-92; HOP-92, time 48 hrs): 31.1 µM
IC50 (SF-268; SF-268, 48 h): 7.08 µM
TGI (SF-268; SF-268, time 48 hrs): 30 µM
IC50 (A498; A498, 48 h): 7.37 µM
TGI (A498; A498, time 48 hrs): 31.4 µM
IC50 (SK-MEL-5; SK-MEL-5, 48 h): 5.64 µM
TGI (SK-MEL-5; SK-MEL-5, time 48 hrs): 10.8 µM
IC50 (OVCAR-8; OVCAR-8, 48 h): 10.6 µM
TGI (OVCAR-8; OVCAR-8, time 48 hrs): > 37 µM
IC50 (A549; A549, 48 h): 9.95 µM
TGI (A549; A549, time 48 hrs): > 37 µM
IC50 (CAKI-1; CAKI-1, 48 h): 8.63 µM
TGI (CAKI-1; CAKI-1, time 48 hrs): > 37 µM
IC50 (SN12C; 48 h): 9.83 µM
TGI (SN12C; time 48 hrs): > 37 µM
IC50 (NCI-H23; NCI-H23, 48 h): 10.1 µM
TGI (NCI-H23; NCI-H23, time 48 hrs): > 37 µM
IC50 (NCI-H460; NCI-H460, 48 h): 6.54 µM
TGI (NCI-H460; NCI-H460, time 48 hrs): 17.1 µM
IC50 (UACC-62; UACC-62, 48 h): 7.57 µM
TGI (UACC-62; UACC-62, time 48 hrs): 24.2 µM
IC50 (RXF 393; RXF 393, 48 h): 6.02 µM
TGI (RXF 393; RXF 393, time 48 hrs): 28.6 µM
IC50 (WI-38): > 20 µM
IC50 (SF-295; SF-295, 48 h): 7.16 µM
TGI (SF-295; SF-295, time 48 hrs): 21.7 µM
IC50 (OVCAR-4; OVCAR-4, 48 h): 10.5 µM
TGI (OVCAR-4; OVCAR-4, time 48 hrs): > 37 µM
IC50 (SR; 48 h): 7.7 µM
TGI (SR; time 48 hrs): > 37 µM
IC50 (M14; M14, 48 h): 6.71 µM
TGI (M14; M14, time 48 hrs): 19 µM
IC50 (COLO 205; COLO 205, 48 h): 8.17 µM
TGI (COLO 205; COLO 205, time 48 hrs): 29.3 µM
IC50 (SK-OV-3; SK-OV-3, 48 h): 10.8 µM
TGI (SK-OV-3; SK-OV-3, time 48 hrs): > 37 µM
IC50 (786-0; 786-0, 48 h): 9.34 µM
TGI (786-0; 786-0, time 48 hrs): > 37 µM
IC50 (Malme-3M; 48 h): 5.45 µM
TGI (Malme-3M; time 48 hrs): 10.6 µM
